This passage reports IC50 results from US20250051337A1 (priority 2021, published 2025).

For assay [1], the target named is STK3 (Homo sapiens (Human), UniProt Q13188). Description: ADP-Glo kinase assay, STK3. Conditions: ADP-Glo, 50 μM ATP; read-out: STK3 IC50. The format is biochemical. How it is done:
(§1) The STK3 kinase assay was performed in 5 μL reaction buffer containing 50 ng recombinant human STK3 protein (full length, SignalChem #S24-10G; Richmond, Canada), 250 μg/mL myelin basic protein (Sigma-Aldrich #M1891; St. Louis, MO, USA), and 50 μM ATP (Sigma-Aldrich #A7699). The STK4 kinase assay was performed in 5 μL reaction buffer containing 50 ng recombinant human STK4 protein (full length, SignalChem #S25-10G), 300 μg/mL Axltide (SignalChem #A16-58), and 50 μM ATP. […] Three experiments were performed, each in triplicate.
(In general: ADP-Glo first removes unused ATP, then detects ADP through luciferase.)

Assay [2] deals with STK4 (Homo sapiens (Human), UniProt Q13043). Description: ADP-Glo kinase assay, STK4. The format is biochemical. The note with it: ADP-Glo, 50 μM ATP; read-out: STK4 IC50. How it is done:
as §1

The structures appear in SMILES notation. Some results are limits rather than exact numbers.

Sequence of STK3 (Q13188 whole entry): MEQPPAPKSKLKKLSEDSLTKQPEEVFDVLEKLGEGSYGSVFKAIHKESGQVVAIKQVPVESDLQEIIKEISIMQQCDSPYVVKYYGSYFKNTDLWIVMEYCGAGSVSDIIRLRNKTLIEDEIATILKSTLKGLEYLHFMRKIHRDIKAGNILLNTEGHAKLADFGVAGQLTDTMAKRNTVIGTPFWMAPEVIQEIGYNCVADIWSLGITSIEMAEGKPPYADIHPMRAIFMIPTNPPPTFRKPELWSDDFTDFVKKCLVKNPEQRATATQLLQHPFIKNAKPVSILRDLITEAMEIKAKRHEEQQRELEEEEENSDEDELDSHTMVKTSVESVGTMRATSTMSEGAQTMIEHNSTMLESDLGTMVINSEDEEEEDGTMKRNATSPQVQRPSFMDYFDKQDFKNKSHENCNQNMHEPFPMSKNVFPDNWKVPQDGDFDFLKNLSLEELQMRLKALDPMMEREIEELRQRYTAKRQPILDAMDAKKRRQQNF
Sequence of STK4 (Q13043 whole entry): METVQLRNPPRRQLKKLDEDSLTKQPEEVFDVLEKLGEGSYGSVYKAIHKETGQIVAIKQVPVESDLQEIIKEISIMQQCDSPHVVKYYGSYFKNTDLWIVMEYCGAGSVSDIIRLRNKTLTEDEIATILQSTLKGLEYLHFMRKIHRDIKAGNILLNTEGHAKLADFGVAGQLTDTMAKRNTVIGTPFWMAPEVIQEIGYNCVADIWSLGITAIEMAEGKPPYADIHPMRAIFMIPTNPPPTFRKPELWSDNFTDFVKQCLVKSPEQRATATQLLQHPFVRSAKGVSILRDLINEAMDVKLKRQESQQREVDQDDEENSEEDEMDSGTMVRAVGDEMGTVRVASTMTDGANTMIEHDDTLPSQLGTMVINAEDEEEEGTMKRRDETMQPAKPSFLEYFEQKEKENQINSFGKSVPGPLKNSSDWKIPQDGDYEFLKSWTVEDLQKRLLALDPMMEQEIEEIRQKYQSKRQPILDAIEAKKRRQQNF

Take `CC(=O)NC1(C)CCN(c2ncnc3[nH]cc(-c4cccc(Cl)c4)c23)CC1` [Compound 124, N-(1-(5-(3-chlorophenyl)-7H-pyrrolo[2,3-d]pyrimidin-4-yl)-4-methylpiperidin-4-yl)acetamide]: the IC50 in assay [1] and in assay [2] was 1 to 5 µM in each case.

As for `Clc1ncccc1-c1c[nH]c2ncnc(N3CCOCC3)c12` [Compound 34, 4-(5-(2-chloropyridin-3-yl)-7H-pyrrolo[2,3-d]pyrimidin-4-yl)morpholine], the concentration for half-maximal inhibition (IC50) in assay [1] and in assay [2] was greater than 5 µM in each case.

On to `FC(F)(F)Oc1cccc(-c2c[nH]c3ncnc(N4CCOCC4)c23)c1` [Compound 27, 4-(5-(3-(trifluoromethoxy)phenyl)-7H-pyrrolo[2,3-d]pyrimidin-4-yl)morpholine], for which the 50% inhibitory concentration (IC50) in assay [1] and in assay [2] was 1 to 5 µM in each case.

Regarding `CC(=O)NCC(C)CNc1ncnc2[nH]cc(-c3cccc(Cl)c3)c12` (centres unmarked) [Compound 129, N-(3-((5-(3-chlorophenyl)-7H-pyrrolo[2,3-d]pyrimidin-4-yl)amino)-2-methylpropyl)acetamide], the concentration for half-maximal inhibition (IC50) in assay [1] and in assay [2] was less than 1 µM throughout.

As for `N#Cc1ccc(Nc2nc(N3CCOCC3)c3c(-c4cccc(Cl)c4)c[nH]c3n2)cc1` [Compound 120, 4-((5-(3-chlorophenyl)-4-morpholino-7H-pyrrolo[2,3-d]pyrimidin-2-yl)amino)benzonitrile], the IC50 in assay [1] and in assay [2] was greater than 5 µM in each case.

On to `CC(=O)NCC(C)CNc1ncnc2[nH]cc(-c3ccccc3)c12` (centres unmarked) [Compound 130, N-(2-methyl-3-((5-phenyl-7H-pyrrolo[2,3-d]pyrimidin-4-yl)amino)propyl)acetamide], for which the IC50 in assay [1] and in assay [2] was 1 to 5 µM each time.

For `Cc1cccc(CNc2ncnc3[nH]cc(-c4cccc(Cl)c4)c23)c1` [Compound 91, 5-(3-chlorophenyl)-N-(3-methylbenzyl)-7H-pyrrolo[2,3-d]pyrimidin-4-amine], the half-inhibitory concentration (IC50) in assay [1] and in assay [2] was greater than 5 µM throughout.

For `CC1CCN(c2ncnc3[nH]cc(-c4cccc(Cl)c4)c23)CC1` [Compound 109, 5-(3-chlorophenyl)-4-(4-methylpiperidin-1-yl)-7H-pyrrolo[2,3-d]pyrimidine], the half-maximal inhibitory concentration (IC50) in assay [1] and in assay [2] was less than 1 µM in each case.

Take `Clc1cccc(-c2c[nH]c3ncnc(N4CCC(N5CCCCC5)CC4)c23)c1` [Compound 81, 4-([1,4′-bipiperidin]-1′-yl)-5-(3-chlorophenyl)-7H-pyrrolo[2,3-d]pyrimidine]: the half-maximal inhibitory concentration (IC50) – broadly, the midpoint of a concentration-inhibition curve – in assay [1] was greater than 5 µM; in assay [2] it was 1 to 5 µM.

With `Clc1cccc(-c2c[nH]c3ncnc(NCc4ccc(Cl)nc4)c23)c1` [Compound 86, 5-(3-chlorophenyl)-N-((6-chloropyridin-3-yl)methyl)-7H-pyrrolo[2,3-d]pyrimidin-4-amine], the IC50 in assay [1] and in assay [2] was greater than 5 µM in each case.

Regarding `CCN(CC)c1ncnc2[nH]cc(-c3cccc(Cl)c3)c12` [Compound 51, 5-(3-chlorophenyl)-N,N-diethyl-7H-pyrrolo[2,3-d]pyrimidin-4-amine], the half-maximal inhibitory concentration (IC50) in assay [1] and in assay [2] was less than 1 µM each time.

As for `CC(=O)N1CCN(c2ncnc3[nH]cc(-c4cccc(Cl)c4)c23)CC1` [Compound 45, 1-(4-(5-(3-chlorophenyl)-7H-pyrrolo[2,3-d]pyrimidin-4-yl)piperazin-1-yl)ethan-1-one], the values for the concentration for half-maximal inhibition (IC50) in assay [1] and in assay [2] were 1 to 5 µM and less than 1 µM, respectively.

As for `Clc1cccc(-c2c[nH]c3ncnc(NCc4cnco4)c23)c1` [Compound 75, 5-(3-chlorophenyl)-N-(oxazol-5-ylmethyl)-7H-pyrrolo[2,3-d]pyrimidin-4-amine], the IC50 in assay [1] and in assay [2] was greater than 5 µM in each case.

In the case of `Clc1cccc(-c2c[nH]c3ncnc(NCC4CCOCC4)c23)c1` [Compound 61, 5-(3-chlorophenyl)-N-((tetrahydro-2H-pyran-4-yl)methyl)-7H-pyrrolo[2,3-d]pyrimidin-4-amine], the IC50 in assay [1] was 1 to 5 µM; in assay [2], less than 1 µM.

As to `Clc1cccc(-c2c[nH]c3ncnc(NCCN4CCCC4)c23)c1` [Compound 83, 5-(3-chlorophenyl)-N-(2-(pyrrolidin-1-yl)ethyl)-7H-pyrrolo[2,3-d]pyrimidin-4-amine], the IC50 in assay [1] and in assay [2] was greater than 5 µM throughout.

In the case of `CC(C)CNc1ncnc2[nH]cc(-c3cccc(Cl)c3)c12` [Compound 52, 5-(3-chlorophenyl)-N-isobutyl-7H-pyrrolo[2,3-d]pyrimidin-4-amine], the IC50 in assay [1] and in assay [2] was less than 1 µM throughout.

Take `COc1ccccc1CNc1ncnc2[nH]cc(-c3cccc(Cl)c3)c12` [Compound 68, 5-(3-chlorophenyl)-N-(2-methoxybenzyl)-7H-pyrrolo[2,3-d]pyrimidin-4-amine]: the half-maximal inhibitory concentration (IC50) in assay [1] and in assay [2] was 1 to 5 µM in each case.

As for `CC(O)CNc1ncnc2[nH]cc(-c3cccc(Cl)c3)c12` (centres unmarked) [Compound 104, 1-((5-(3-chlorophenyl)-7H-pyrrolo[2,3-d]pyrimidin-4-yl)amino)propan-2-ol], the IC50 in assay [1] and in assay [2] was less than 1 µM throughout.

As for `COc1ccc(-c2c[nH]c3ncnc(N4CCOCC4)c23)cc1` [Compound 26, 4-(5-(4-methoxyphenyl)-7H-pyrrolo[2,3-d]pyrimidin-4-yl)morpholine], the half-maximal inhibitory concentration (IC50) in assay [1] was 1 to 5 µM; in assay [2], less than 1 µM.

In the case of `OCCNc1ncnc2[nH]cc(-c3cccc(Cl)c3)c12` [Compound 54, 2-((5-(3-chlorophenyl)-7H-pyrrolo[2,3-d]pyrimidin-4-yl)amino)ethan-1-ol], the IC50 in assay [1] and in assay [2] was less than 1 µM each time.

For the molecule `COCC(C)CNc1ncnc2[nH]cc(-c3cccc(Cl)c3)c12` (centres unmarked) [Compound 123, 5-(3-chlorophenyl)-N-(3-methoxy-2-methylpropyl)-7H-pyrrolo[2,3-d]pyrimidin-4-amine], the IC50 in assay [1] and in assay [2] was less than 1 µM in each case.

As for `Fc1cnc(Cl)cc1-c1c[nH]c2ncnc(N3CCOCC3)c12` [Compound 32, 4-(5-(2-chloro-5-fluoropyridin-4-yl)-7H-pyrrolo[2,3-d]pyrimidin-4-yl)morpholine], the IC50 in assay [1] is greater than 5 µM; in assay [2], 1 to 5 µM.

For the molecule `CC(CNc1ncnc2[nH]cc(-c3cccc(Cl)c3)c12)C(=O)O` (centres unmarked) [Compound 126, 3-((5-(3-chlorophenyl)-7H-pyrrolo[2,3-d]pyrimidin-4-yl)amino)-2-methylpropanoic acid], the IC50 in assay [1] and in assay [2] was 1 to 5 µM throughout.

For the molecule `CS(=O)(=O)c1ccc(-c2c[nH]c3ncnc(N4CCOCC4)c23)cc1` [Compound 40, 4-(5-(4-(methylsulfonyl)phenyl)-7H-pyrrolo[2,3-d]pyrimidin-4-yl)morpholine], the half-maximal inhibitory concentration (IC50) in assay [1] and in assay [2] was greater than 5 µM throughout.

Consider `c1ncc(-c2c[nH]c3ncnc(N4CCOCC4)c23)cn1` [Compound 36, 4-(5-(pyrimidin-5-yl)-7H-pyrrolo[2,3-d]pyrimidin-4-yl)morpholine], for which the IC50 in assay [1] and in assay [2] was greater than 5 µM in each case.

In the case of `NS(=O)(=O)c1ccc(Nc2nc(N3CCOCC3)c3c(-c4cccc(Cl)c4)c[nH]c3n2)cc1` [Compound 96, 4-((5-(3-chlorophenyl)-4-morpholino-7H-pyrrolo[2,3-d]pyrimidin-2-yl)amino)benzenesulfonamide], the values for the IC50 in assay [1] and in assay [2] were 1 to 5 µM and less than 1 µM, respectively.

Turning to `O=C(O)c1ccc(Nc2nc(N3CCOCC3)c3c(-c4cccc(Cl)c4)c[nH]c3n2)cc1` [Compound 100, 4-((5-(3-chlorophenyl)-4-morpholino-7H-pyrrolo[2,3-d]pyrimidin-2-yl)amino)benzoic acid], the values for the IC50 in assay [1] and in assay [2] were 1 to 5 µM and less than 1 µM, respectively.

As to `Clc1cccc(-c2c[nH]c3ncnc(NCc4nccs4)c23)c1` [Compound 79, 5-(3-chlorophenyl)-N-(thiazol-2-ylmethyl)-7H-pyrrolo[2,3-d]pyrimidin-4-amine], the IC50 in assay [1] and in assay [2] was greater than 5 µM throughout.

Turning to `Fc1c(-c2c[nH]c3ncnc(N4CCOCC4)c23)ccnc1Cl` [Compound 33, 4-(5-(2-chloro-3-fluoropyridin-4-yl)-7H-pyrrolo[2,3-d]pyrimidin-4-yl)morpholine], the half-maximal inhibitory concentration (IC50) in assay [1] and in assay [2] was greater than 5 µM each time.

As for `Clc1cccc(-c2c[nH]c3ncnc(N4CCN(c5ccccc5)CC4)c23)c1` [Compound 89, 5-(3-chlorophenyl)-4-(4-phenylpiperazin-1-yl)-7H-pyrrolo[2,3-d]pyrimidine], the half-maximal inhibitory concentration (IC50) in assay [1] and in assay [2] was greater than 5 µM each time.

With `Clc1cccc(-c2c[nH]c3ncnc(NCc4cnc[nH]4)c23)c1` [Compound 76, N-((1H-imidazol-5-yl)methyl)-5-(3-chlorophenyl)-7H-pyrrolo[2,3-d]pyrimidin-4-amine], the half-inhibitory concentration (IC50) in assay [1] and in assay [2] was greater than 5 µM throughout.

As for `COC(=O)c1ccc(Nc2nc(N3CCOCC3)c3c(-c4cccc(Cl)c4)c[nH]c3n2)cc1` [Compound 99, methyl 4-((5-(3-chlorophenyl)-4-morpholino-7H-pyrrolo[2,3-d]pyrimidin-2-yl)amino)benzoate], the half-inhibitory concentration (IC50) in assay [1] and in assay [2] was greater than 5 µM each time.

For the molecule `CC(C)CCNc1ncnc2[nH]cc(-c3cccc(Cl)c3)c12` [Compound 64, 5-(3-chlorophenyl)-N-isopentyl-7H-pyrrolo[2,3-d]pyrimidin-4-amine], the half-inhibitory concentration (IC50) in assay [1] and in assay [2] was 1 to 5 µM in each case.

In the case of `Clc1ccc(-c2c[nH]c3ncnc(N4CCOCC4)c23)cc1Cl` [Compound 30, 4-(5-(3,4-dichlorophenyl)-7H-pyrrolo[2,3-d]pyrimidin-4-yl)morpholine], the IC50 in assay [1] and in assay [2] was 1 to 5 µM in each case.
